Measured values reported in ChEMBL document CHEMBL1157316, “Resin glycosides from the flowers of Ipomoea murucoides” (2006).
In brackets after ≈: the same amount, converted by molar mass.

Tested on: HEp-2
Assay: Cytotoxicity against human Hep2 cells after 72 hrs by SRB method
Assay type: functional
Settings: HEp-2, 72 h, read-out: ED50 (the source's name)

Row | Structure (SMILES) | EC50 [µg/mL]
1 | CCCCC[C@H]1CCCCCCCCCC(=O)O[C@H]2[C@H](O[C@H]3[C@H](O1)O[C@H](C)[C@H](O)[C@@H]3O)O[C@@H](C)[C@H](O[C@@H]1O[C@@H](C)[C@H](O[C@@H]3O[C@@H](C)[C@H](OC(=O)[C@@H](C)CC)[C@@H](O)[C@H]3O)[C@@H](O[C@@H]3O[C@@H](C)[C@H](O)[C@@H](O)[C@H]3O)[C@H]1OC(=O)[C@@H](C)CC)[C@H]2O [MURUCOIDIN III] | > 20
2 | CCCCC[C@H]1CCCCCCCCCC(=O)O[C@H]2[C@H](O[C@H]3[C@H](O1)O[C@H](C)[C@H](O)[C@@H]3O)O[C@@H](C)[C@H](O[C@@H]1O[C@@H](C)[C@H](O[C@@H]3O[C@@H](C)[C@H](OC(=O)C(C)C)[C@@H](O)[C@H]3O)[C@@H](O[C@@H]3O[C@@H](C)[C@H](O)[C@@H](O)[C@H]3O)[C@H]1OC(=O)[C@@H](C)CC)[C@H]2O [MURUCOIDIN II] | > 20
3 | CCCCC[C@H]1CCCCCCCCCC(=O)O[C@H]2[C@H](O[C@H]3[C@H](O1)O[C@H](C)[C@H](O)[C@@H]3O)O[C@@H](C)[C@H](O[C@@H]1O[C@@H](C)[C@H](O[C@@H]3O[C@@H](C)[C@H](OC(=O)[C@@H](C)CC)[C@@H](O)[C@H]3O)[C@@H](O[C@@H]3O[C@H](CO)[C@@H](O)[C@H](O)[C@H]3O)[C@H]1OC(=O)[C@@H](C)CC)[C@H]2O [MURUCOIDIN IV] | 4 (≈ 3.42 µM)
4 | CCCCC[C@H]1CCCCCCCCCC(=O)O[C@H]2[C@H](O[C@H]3[C@H](O1)O[C@H](C)[C@H](O)[C@@H]3O)O[C@@H](C)[C@H](O[C@@H]1O[C@@H](C)[C@H](O[C@@H]3O[C@@H](C)[C@H](O)[C@@H](O)[C@H]3O)[C@@H](O[C@@H]3O[C@@H](C)[C@H](O)[C@@H](O)[C@H]3O)[C@H]1OC(=O)[C@@H](C)CC)[C@H]2O [MURUCOIDIN I] | > 20
5 | CCCCC[C@H]1CCCCCCCCCC(=O)O[C@H]2[C@@H](O)[C@H](O[C@H]3[C@H](O1)O[C@H](C)[C@H](O)[C@@H]3O)O[C@@H](C)[C@@H]2O[C@@H]1O[C@@H](C)[C@H](O[C@@H]2O[C@@H](C)[C@H](OC(=O)[C@@H](C)CC)[C@@H](O)[C@H]2O)[C@@H](O[C@@H]2O[C@H](CO)[C@@H](O)[C@H](O)[C@H]2O)[C@H]1OC(=O)[C@@H](C)CC [MURUCOIDIN V] | > 20
6 | CCCCC[C@H]1CCCCCCCCCC(=O)O[C@H]2[C@@H](O)[C@H](O[C@H]3[C@H](O1)O[C@H](C)[C@H](O)[C@@H]3O)O[C@@H](C)[C@@H]2O[C@@H]1O[C@@H](C)[C@H](O[C@@H]2O[C@@H](C)[C@H](OC(=O)[C@@H](C)CC)[C@@H](O)[C@H]2O)[C@@H](O[C@@H]2O[C@@H](C)[C@H](O)[C@@H](O)[C@H]2O)[C@H]1OC(=O)[C@@H](C)CC [STOLONIFERIN I] | > 20
7 | CC[C@]1(O)C[C@@H]2CN(CCc3c([nH]c4ccccc34)[C@@](C(=O)OC)(c3cc4c(cc3OC)N(C)[C@H]3[C@@](O)(C(=O)OC)[C@H](OC(C)=O)[C@]5(CC)C=CCN6CC[C@]43[C@@H]65)C2)C1 [VINBLASTINE] | 0.001 (≈ 0.00123 µM)

Tested on: KB
Assay: Cytotoxicity against human KB cells after 72 hrs by SRB method
Assay type: functional
Settings: read-out: ED50 (the source's name)

Row | Structure (SMILES) | EC50 [µg/mL]
8 | CC[C@]1(O)C[C@@H]2CN(CCc3c([nH]c4ccccc34)[C@@](C(=O)OC)(c3cc4c(cc3OC)N(C)[C@H]3[C@@](O)(C(=O)OC)[C@H](OC(C)=O)[C@]5(CC)C=CCN6CC[C@]43[C@@H]65)C2)C1 [VINBLASTINE] | 0.05 (≈ 0.0617 µM)
